# Source: US20220143053A1, “ANTI-MICROBIAL METHODS AND MATERIALS” (priority 2019, published 2022)
# Where two headings read alike, the source gives them in different places.
# Columns and labels:
# [1] = tested on: methicillin-sensitive Staphylococcus aureus (MSSA, ATCC 12600); assay: Minimum bactericidal concentration (MBC) test; type: cell-based; details: MSSA ATCC 12600, kill 99.9% of bacteria
# Experimental: (§1) Antibacterial activity of sodium channel blockers (lidocaine, bupivacaine, tetracaine, procaine, prilocaine), NSAIDs (ketorolac and tolfenamic acid), antioxidants (resveratrol and curcumin), and antibiotics (gentamicin and vancomycin) was performed against methicillin-sensitive Staphylococcus aureus (MSSA, ATCC 12600). The bacterial susceptibility tests were conducted as outlined in the Clinical and Laboratory Standard Institute (CLSI) protocol M07-A10. Bacterial suspensions with a concentration of approximately 5*10^5 CFU/ml were prepared in Lysogeny broth and mixed with the tested drugs. […] Minimum bactericidal concentration (MBC) was determined as the minimum concentration of the tested drug needed to kill 99.9% of bacteria (or 3−log 10 reduction). […] The MBC was measured for lidocaine, bupivacaine, ketorolac, and gentamicin.
# MSSA (ATCC 14775) = assay: Time-kill experiments; type: cell-based, Staphylococcus aureus; details: between 4 and 24 h
# Experimental: Time-kill curves employing 3 time-points (0, 4, 24 hours) over the period of 24 hours were obtained for characterization of the antibacterial activity of selected combinations against MSSA (ATCC® 14775). Tested combinations of drugs were incubated with 5*10^5 CFU/ml of bacteria in Lysogeny broth at 37° C. At a given time-point, aliquots were collected, and bacterial concentrations were determined using the spread-plate method. The minimum accurately countable concentration was 10^2 CFU/ml. […] The increase of bacterial concentration represented antagonism.
# [2] = tested on: methicillin-sensitive Staphylococcus aureus (MSSA, ATCC 12600); assay: Minimum inhibitory concentration (MIC) test, CLSI M07-A10; type: cell-based
# Experimental: as §1
# [3] = tested on: methicillin-sensitive S. aureus; details: cited from earlier work
# [4] = tested on: Bacillus cereus, MSSA, MRSA, Escherichia coli, Klebsiella pneumoniae, Pseudomonas aeruginosa, Enterobacter aerogenes, and Salmonella Choleraesuis; details: eight listed bacteria; cited from earlier work
# [5] = systemic administration; cited from earlier work
# [6] = Drug solubility limit in growth medium; type: physicochemical; details: plasma or biological fluid
# [7] = Staphylococcus aureus, MSSA ATCC 12600, Lysogeny broth, 24-hour incubation at 37° C., read-out: MIC
molecule,measurement,setting,value
Gentamicin,MBC,[1],2 µg/mL
same,regrowth in time-kill curves,MSSA (ATCC 14775),regrowth phase
same,MIC,"[2]; MSSA ATCC 12600, Lysogeny broth, 24-hour incubation at 37° C.",4 µg/mL
CCN(CC)CC(=O)Nc1c(C)cccc1C [Lidocaine],antibacterial effects,[3],measurable antibacterial effects
same,MIC,[2]; [7],15600 µg/mL
O=C(O)Cc1ccccc1Nc1c(Cl)cccc1Cl [diclofenac],antibacterial activity,[4],measurable antibacterial activity
CCCNC(C)C(=O)Nc1ccccc1C (stereo not shown) [Prilocaine],MIC,[2]; [7],25000 µg/mL
CN[C@H](CC(C)C)C(=O)N[C@H]1C(=O)N[C@@H](CC(N)=O)C(=O)N[C@H]2C(=O)N[C@H]3C(=O)N[C@H](C(=O)N[C@H](C(=O)O)c4cc(O)cc(O)c4-c4cc3ccc4O)[C@H](O)c3ccc(c(Cl)c3)Oc3cc2cc(c3O[C@@H]2O[C@H](CO)[C@@H](O)[C@H](O)[C@H]2O[C@H]2C[C@](C)(N)[C@H](O)[C@H](C)O2)Oc2ccc(cc2Cl)[C@H]1O [Vancomycin],MIC,"[2]; Staphylococcus aureus, 24 h",0.625 µg/mL
same,concentration in the bone relative to that in the serum,[5],~20%
CC(=O)Oc1ccccc1C(=O)O [aspirin],antibacterial activity,[4],measurable antibacterial activity
Cc1c(Cl)cccc1Nc1ccccc1C(=O)O [Tolfenamic Acid],MIC,[2]; [7],250 µg/mL
Cc1cccc(Nc2ccccc2C(=O)O)c1C [mefenamic acid],antibacterial activity,[4],measurable antibacterial activity
O=C(c1ccccc1)c1ccc2n1CCC2C(=O)O (stereo not shown) [Ketorolac],solubility,[6],~18 mg/mL
same,MIC,[2]; [7],3120 µg/mL
CCCCN1CCCCC1C(=O)Nc1c(C)cccc1C (stereo not shown) [Bupivacaine],antibacterial effects,[3],measurable antibacterial effects
same,solubility,[6],~15 mg/mL
same,MIC,[2]; [7],1880 µg/mL
CCCCNc1ccc(C(=O)OCCN(C)C)cc1 [Tetracaine],MIC,[2]; [7],938 µg/mL
CC(C)Cc1ccc(C(C)C(=O)O)cc1 (stereo not shown) [Ibuprofen],antibacterial activity,[4],measurable antibacterial activity
CCN(CC)CCOC(=O)c1ccc(N)cc1 [Procaine],MIC,[2]; [7],100000 µg/mL
COc1cc(/C=C/C(=O)CC(=O)/C=C/c2ccc(O)c(OC)c2)ccc1O [Curcumin],MIC,[2]; [7],188 µg/mL
Oc1ccc(C=Cc2cc(O)cc(O)c2)cc1 [Resveratrol],MIC,[2]; [7],125 µg/mL
